Laboratory results from the supplement of paper PMC11061612.

Experiments:
Capivasertib = compound: C1CN(CCC1(C(=O)N[C@@H](CCO)C2=CC=C(C=C2)Cl)N)C3=NC=NC4=C3C=CN4 [Capivasertib]; conditions: max 10 µM
In short: (§1)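 Cancer cell lines were seeded in 1536-well plates in 7.5 μl DMEM/F12 or RPMI with 10% FBS, held 24 hours at 37°C and 5% CO2, then dosed for 72 hours (final DMSO typically 0.2%). Viability was read by CellTiter-Glo 2.0 luminescence and scaled between blank-well and DMSO-well means. The single-agent IC50 comes from dose responses fitted to a two-parameter logistic curve with a non-linear mixed effects model.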

AZD1775 = compound: C=CCn1c(=O)c2cnc(Nc3ccc(N4CCN(C)CC4)cc3)nc2n1-c1cccc(C(C)(C)O)n1 [AZD1775]; conditions: max 3 µM
In short: as §1

Trametinib = compound: CC(=O)Nc1cccc(-n2c(=O)n(C3CC3)c(=O)c3c(Nc4ccc(I)cc4F)n(C)c(=O)c(C)c32)c1 [Trametinib]; conditions: max 1 µM
In short: as §1

Palbociclib = compound: CC(=O)c1c(C)c2cnc(Nc3ccc(N4CCNCC4)cn3)nc2n(C2CCCC2)c1=O [Palbociclib]; conditions: max 10 µM
In short: as §1

AZD1390 = compound: CC(C)n1c(=O)n(C)c2cnc3cc(F)c(-c4ccc(OCCCN5CCCCC5)nc4)cc3c21 [AZD1390]; conditions: max 0.3 µM
In short: as §1

Venetoclax = compound: CC1(C)CCC(CN2CCN(c3ccc(C(=O)NS(=O)(=O)c4ccc(NCC5CCOCC5)c([N+](=O)[O-])c4)c(Oc4cnc5[nH]ccc5c4)c3)CC2)=C(c2ccc(Cl)cc2)C1 [Venetoclax]; conditions: max 1 µM
In short: as §1

Dasatinib = compound: CC1=C(C(=CC=C1)Cl)NC(=O)C2=CN=C(S2)NC3=CC(=NC(=N3)C)N4CCN(CC4)CCO [Dasatinib]; conditions: max 2 µM
In short: as §1

SG3199 = compound: CC1=CN2[C@@H](C1)C=NC3=CC(=C(C=C3C2=O)OC)OCCCCCOC4=C(C=C5C(=C4)N=C[C@@H]6CC(=CN6C5=O)C)OC [SG3199]; conditions: max 0.001 µM
In short: as §1

AZD2811 = compound: CCN(CCO)CCCOc1ccc2c(Nc3cc(CC(=O)Nc4cccc(F)c4)[nH]n3)ncnc2c1 [AZD2811]; conditions: max 1 µM
In short: as §1

SN-38 = compound: CCc1c2c(nc3ccc(O)cc13)-c1cc3c(c(=O)n1C2)COC(=O)[C@]3(O)CC [SN-38]; conditions: max 0.3 µM
In short: as §1

AZD0156 = compound: CN(C)CCCOc1ccc(-c2ccc3ncc4c(c3c2)n(C2CCOCC2)c(=O)n4C)cn1 [AZD0156]; conditions: max 3 µM
In short: as §1

AZD4320 = compound: CN(CC[C@H](CSC1=CC=CC=C1)NC2=C(C=C(C=C2)S(=O)(=O)NC(=O)C3=CC=C(C=C3)N4CCC(CC4)[C@H](C5=CC=CC=C5C6=CC=C(C=C6)Cl)O)S(=O)(=O)C(F)(F)F)CCO [AZD4320]; conditions: max 1 µM
In short: as §1

Alisertib = compound: COc1cc(Nc2ncc3c(n2)-c2ccc(Cl)cc2C(c2c(F)cccc2OC)=NC3)ccc1C(=O)O [Alisertib]; conditions: max 10 µM
In short: as §1

Gefitinib = compound: COc1cc2ncnc(Nc3ccc(F)c(Cl)c3)c2cc1OCCCN1CCOCC1 [Gefitinib]; conditions: max 10 µM
In short: as §1

Prexasertib = compound: COc1cccc(OCCCN)c1-c1cc(Nc2cnc(C#N)cn2)n[nH]1 [Prexasertib]; conditions: max 1 µM
In short: as §1

Doxorubicin = compound: COc1cccc2c1C(=O)c1c(O)c3c(c(O)c1C2=O)C[C@@](O)(C(=O)CO)C[C@@H]3O[C@H]1C[C@H](N)[C@H](O)[C@H](C)O1 [Doxorubicin]; conditions: max 1 µM
In short: as §1

AZD5153 = compound: COc1nnc2ccc(N3CCC(c4ccc(OCCN5CCN(C)C(=O)[C@H]5C)cc4)CC3)nn12 [AZD5153]; conditions: max 1 µM
In short: as §1

Lapatinib = compound: CS(=O)(=O)CCNCc1ccc(-c2ccc3ncnc(Nc4ccc(OCc5cccc(F)c5)c(Cl)c4)c3c2)o1 [Lapatinib]; conditions: max 10 µM
In short: as §1

AZD8186 = compound: C[C@@H](Nc1cc(F)cc(F)c1)c1cc(C(=O)N(C)C)cc2c(=O)cc(N3CCOCC3)oc12 [AZD8186]; conditions: max 3 µM
In short: as §1

Crizotinib = compound: C[C@@H](Oc1cc(-c2cnn(C3CCNCC3)c2)cnc1N)c1c(Cl)ccc(F)c1Cl [Crizotinib]; conditions: max 10 µM
In short: as §1

Savolitinib = compound: C[C@@H](c1ccc2nccn2c1)n1nnc2ncc(-c3cnn(C)c3)nc21 [Savolitinib]; conditions: max 1 µM
In short: as §1

AZD6738 = compound: C[C@@H]1COCCN1C2=NC(=NC(=C2)C3(CC3)[S@](=N)(=O)C)C4=C5C=CNC5=NC=C4 [AZD6738]; conditions: max 10 µM
In short: as §1

AZD5991 = compound: Cc1c2c(nn1C)CSCc1cc(n(C)n1)CSc1cc(c3ccccc3c1)OCCCc1c(C(=O)O)n(C)c3c-2c(Cl)ccc13 [AZD5991]; conditions: max 1 µM
In short: as §1

AZD7648 = compound: Cc1cc2ncnn2cc1Nc1ncc2c(n1)n(C1CCOCC1)c(=O)n2C [AZD7648]; conditions: max 10 µM
In short: as §1

Taselisib = compound: Cc1nc(-c2cn3c(n2)-c2ccc(-c4cnn(C(C)(C)C(N)=O)c4)cc2OCC3)n(C(C)C)n1 [Taselisib]; conditions: max 10 µM
In short: as §1

Selumetinib = compound: Cn1cnc2c(F)c(Nc3ccc(Br)cc3Cl)c(C(=O)NOCCO)cc21 [Selumetinib]; conditions: max 10 µM
In short: as §1

Olaparib = compound: O=C(c1cc(Cc2n[nH]c(=O)c3ccccc23)ccc1F)N1CCN(C(=O)C2CC2)CC1 [Olaparib]; conditions: max 10 µM
In short: as §1

MK-2206 = compound: NC1(c2ccc(-c3nc4ccn5c(=O)[nH]nc5c4cc3-c3ccccc3)cc2)CCC1 [MK-2206]; conditions: max 10 µM
In short: as §1

Cell Line	IC50, cell viability 72 h (Capivasertib) [nM]	IC50, cell viability 72 h (AZD1775) [nM]	IC50, cell viability 72 h (Trametinib) [nM]	IC50, cell viability 72 h (Palbociclib) [nM]	IC50, cell viability 72 h (AZD1390) [nM]	IC50, cell viability 72 h (Venetoclax) [nM]	IC50, cell viability 72 h (Dasatinib) [nM]	IC50, cell viability 72 h (SG3199) [nM]	IC50, cell viability 72 h (AZD2811) [nM]	IC50, cell viability 72 h (SN-38) [nM]	IC50, cell viability 72 h (AZD0156) [nM]	IC50, cell viability 72 h (AZD4320) [nM]	IC50, cell viability 72 h (Alisertib) [nM]	IC50, cell viability 72 h (Gefitinib) [nM]	IC50, cell viability 72 h (Prexasertib) [nM]	IC50, cell viability 72 h (Doxorubicin) [nM]	IC50, cell viability 72 h (AZD5153) [nM]	IC50, cell viability 72 h (Lapatinib) [nM]	IC50, cell viability 72 h (AZD8186) [nM]	IC50, cell viability 72 h (Crizotinib) [nM]	IC50, cell viability 72 h (Savolitinib) [nM]	IC50, cell viability 72 h (AZD6738) [nM]	IC50, cell viability 72 h (AZD5991) [nM]	IC50, cell viability 72 h (AZD7648) [nM]	IC50, cell viability 72 h (Taselisib) [nM]	IC50, cell viability 72 h (Selumetinib) [nM]	IC50, cell viability 72 h (Olaparib) [nM]	IC50, cell viability 72 h (MK-2206) [nM]
DK-MG (Glioblastoma)	> 10000	2150	375	> 10000	> 300	> 1000	> 2000	> 1	> 1000	> 300	> 3000	> 1000	> 10000	> 10000	> 1000	> 1000	803	> 10000	2850	4990	> 1000	> 10000	> 1000	> 10000	> 10000	> 10000	> 10000	
JURL-MK1 (Chronic Myelogenous Leukemia)	> 10000	85.1	5.76	248	> 300	> 1000	< 2	> 1	> 1000	9.8	> 3000	322	297	> 10000	2.55	115	61.3	> 10000	> 3000	320	> 1000	228	778	> 10000	> 10000	339	> 10000	
C2BBe1 (Colorectal Carcinoma)	> 10000	2700	818	> 10000	> 300	> 1000	> 2000	> 1	> 1000	> 300	> 3000	> 1000	> 10000	> 10000	> 1000	> 1000	> 1000	> 10000	> 3000	> 10000	> 1000	> 10000	> 1000	> 10000	2990	> 10000	> 10000	
NCI-H1944 (Lung Adenocarcinoma)	7930	839	733	> 10000	> 300	> 1000	> 2000	> 1	> 1000	134	> 3000	> 1000	4870	> 10000	134	> 1000	491	> 10000	> 3000	> 10000	> 1000	3980	> 1000	> 10000	1600	> 10000	> 10000	> 10000
BT-474 (Breast Carcinoma)	> 10000	> 3000	> 1000	> 10000	> 300	> 1000	> 2000	> 1	> 1000	> 300	> 3000	> 1000	> 10000	> 10000	> 1000	> 1000	> 1000	2540	> 3000	> 10000	> 1000	> 10000	> 1000	> 10000	779	> 10000	> 10000	
SBC-5 (Small Cell Lung Carcinoma)	> 10000	1140	> 1000	> 10000	> 300	> 1000	> 2000	> 1	> 1000	20.2	> 3000	> 1000	3250	> 10000	79.5	> 1000	507	> 10000	> 3000	7270	> 1000	5870	> 1000	> 10000	4640	> 10000	> 10000	> 10000
